Patent US20230263812A1, “Compositions and Methods for Treating COVID-19 and/or Acute Respiratory Failure and/or Acute Respiratory Distress Syndrome Using Tetrahydrocannabinol and Compositions Including Same” (priority 2020, published 2023)
Structures can show the parent of a compound that is named as a salt. Where two headings read alike, the source gives them in different places.

How the values were obtained:
COVID-19 = test: Clinical study of oral dronabinol plus standard of care in COVID-19 patients hospitalized for hypoxia; assay type: in vivo, human; settings: for LOS: LOS = length of stay (days)
[1] = cited from earlier work
[2] = cited from earlier work; for share of the urinary excretion products of fluvoxamine: 5 mg radiolabelled dose of fluvoxamine maleate, fluvoxamine acid value is together with its N-acetylated analog; for bound to plasma protein: mostly albumin, concentration range 20 to 2000 ng/mL
serotonin uptake = settings: in vitro, rats; cited from earlier work
norepinephrine reuptake = settings: in vitro, rats; cited from earlier work
[3] = cited from earlier work; remark: listed apart in the source
serotonin reuptake = settings: in vitro as well as in vivo; cited from earlier work
σ-1 non-opioid receptor = σ-1 non-opioid receptor (Homo sapiens, UniProt Q99720); settings: cited from earlier work
σ-1 non-opioid receptor, sequence (Q99720 whole entry): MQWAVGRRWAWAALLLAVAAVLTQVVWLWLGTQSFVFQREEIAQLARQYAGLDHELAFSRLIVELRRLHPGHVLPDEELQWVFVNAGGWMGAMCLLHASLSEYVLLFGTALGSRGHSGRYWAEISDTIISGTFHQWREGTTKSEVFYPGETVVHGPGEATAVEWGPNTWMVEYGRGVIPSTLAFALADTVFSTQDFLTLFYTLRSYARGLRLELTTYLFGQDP

## CCCCCc1cc(O)c2c(c1)OC(C)(C)[C@@H]1CCC(C)=C[C@@H]21 [dronabinol, (−)-(6aR,10aR)-6,6,9-trimethyl-3-pentyl-6a,7,8,10a-tetrahydro-6H-benzo[c]-chromen-1-ol]
COVID-19; 2.5 mg dronabinol regimen
  survival rate: 88.9%
  LOS: 17.4
COVID-19; 2.5 mg dronabinol regimen, total 9 in group
  # Survived: 8
COVID-19; 2.5 mg group (2.5 mg twice orally daily)
  survival rate: 89%
COVID-19; 5 mg dronabinol regimen
  survival rate: 94.1%
  LOS: 8.8
COVID-19; 5 mg dronabinol regimen, total 68 in group
  # Survived: 64
COVID-19; 5 mg treated group (5 mg orally twice daily)
  survival rate: 93.5%
COVID-19; all dronabinol-treated patients (77), standard of care alone 80%
  survival rate: 93.5%
COVID-19; hospitalized COVID-19 patients requiring oxygen supplementation, 2.5 mg or 5 mg dronabinol orally BID plus standard of care, 77 patients, untreated group 20.5%
  Mortality rate: 6.5%
COVID-19; lower in the treatment group than untreated, p-value 0.07, not statistically significant
  average first peak C-reactive protein (CRP) levels, difference: 14%
COVID-19; treated group (77) versus untreated/control group (44), p-value 0.02
  reduction in mortality: 68%
COVID-19; treated group, untreated group 15.6 days
  Length of stay in the hospital: 9.9 days
COVID-19; treated versus untreated group, p-value 0.01
  reduction in length of stay: 37%
[1]; following single dose administration
  time for which low levels of metabolites are detected in the urine and feces: more than 5 weeks
[1]; in vivo, po
  radio-labeled oral dose recovered from the feces within 72 hours: about half
  radio-labeled oral dose recovered from urine: 10-15%
[1]; oral
  absorbed after single oral doses: 90-95%
[1]; Δ9-THC and its metabolites
  plasma protein binding: approximately 97%

## NCCO/N=C(\CCCC(=O)O)c1ccc(C(F)(F)F)cc1 [fluvoxamine acid]
[2]
  share of the urinary excretion products of fluvoxamine: about 60%
Serotonin uptake
  potency on serotonin uptake relative to the parent compound: 1-2 orders of magnitude less potent

## COCCCC/C(=N\OCCO)c1ccc(C(F)(F)F)cc1 [fluvoxamine ethanol]
[2]
  share of the urinary excretion products of fluvoxamine: about 10%
Serotonin uptake
  inhibition of serotonin uptake: inactive
Norepinephrine reuptake
  norepinephrine reuptake inhibition: inactive

## COCCCC/C(=N\OCCN)c1ccc(C(F)(F)F)cc1 [fluvoxamine maleate]
[2]; human, in vivo, po
  effect of food on oral bioavailability: not significantly affected by food

## COCCCC/C(=N\OCCN)c1ccc(C(F)(F)F)cc1 [fluvoxamine, 2-[(E)-[5-methoxy-1-[4-(trifluoromethyl)phenyl]pentylidene]amino]oxyethanamine]
[2]; human, in vivo
  mean apparent volume of distribution: approximately 25 L/kg
[2]; human, in vivo, listed as Fluvoxamine
  mean apparent volume of distribution: 25 L/kg
[2]
  bound to plasma protein: Approximately 80%
[2]; listed as Fluvoxamine
  bound to plasma protein: 80%
[3]; cross study comparison, healthy subjects versus patients with hepatic dysfunction
  decrease in clearance in association with hepatic dysfunction: 30%
[3]; human, in vivo
  clearance reduced in elderly patients: about 50%
Serotonin reuptake
  serotonin reuptake inhibition: potent
σ-1 non-opioid receptor
  agonistic sigma1 binding affinity, rank among agents tested: strongest
